Here are results for 19 compounds from PMC8399847, “Hybrid Quinolinyl Phosphonates as Heterocyclic Carboxylate Isosteres: Synthesis and Biological Evaluation against Topoisomerase 1B (TOP1B)” (Pharmaceuticals, 2021).

What is called IC50 is the concentration needed to halve the response being measured. The term melting point denotes the temperature, or range, at which the solid turns liquid.

Series [1] concerns leishmanial TOP1B (LTOP1B). Kind of series: LTOP1B relaxation activity assay. It counts as biochemical, Leishmania. As to conditions: 100 µM of compound, 1 min. The method, then:
The inhibition of relaxation activity of LTOP1B by the compounds was tested at 100 µM. The reactions were performed for 1 min in the way described in the experimental protocols section. The percentage of inhibition was calculated by measuring the intensity of the band corresponding to the supercoiled DNA when the different DNA topoisomers were separated in an agarose gel.
Purification of leishmanial DNA topoisomerase 1B (LTOP1B) was carried out as reported previously. Shortly, LTOP1B was purified using the deficient in TOP1 activity yeast strain, EKY3 MAT α ura3–52 his3Δ20ting, from the union of the bicistronic expression vector pESC-URA to both subunits of LTOP1B. The yeast cells were grown in a yeast synthetic drop-out medium without uracil (Sigma) supplemented with 2% raffinose (w/v) to OD600: 0.8–1 and induced for 10 h with 2% galactose (w/v). After that, the cells were harvested, washed with cold TEEG buffer (50 mM Tris–HCl pH 7.4, 1 mM EDTA, 1 mM EGTA, 10% glycerol), resuspended in 15 mL of 1× TEEG buffer supplemented with 0.2 M KCl and a protease inhibitors cocktail (Thermo Scientific, Waltham, MA, USA) and lysed. Protein extract obtained was loaded on a 5 mL Heparin Sepharose column (GE Healthcare, MA, USA). LTOP1B enzyme was eluted at 4 °C with a discontinuous gradient of KCl (0.2, 0.4, 0.6 M) in TEEG buffer.
Leishmanial TOP1B activity was tested by the relaxation of supercoiled plasmid DNA assay. Each reaction contained: one unit of purified LTOP1B enzyme, 100 µM of each compound, 0.5 μg of supercoiled pSK DNA, 10 mM Tris-HCl buffer pH 7.5, 5 mM MgCl2, 0.1 mM EDTA, 15 µg/mL bovine serum albumin, and 150 mM KCl. The final volume of each reaction was 20 µL. Reaction mixtures were incubated for 1 min at 37 °C and stopped by the addition of a 4 µL loading buffer (5% sarkosyl, 0.12% bromophenol blue, 25% glycerol). The DNA topoisomers were resolved in 1% agarose gels by electrophoresis in 0.1 M Tris borate EDTA buffer (pH 8.0) at 2 V/cm for 16 h and visualized with UV illumination after ethidium bromide (0.5 μg/mL) staining. The percentage of inhibition was calculated by measuring the intensity of the band corresponding to the supercoiled DNA after separating and staining the different DNA topoisomers. This analysis was performed using the GeneTools from Syngene software (Version 4.3.8, MD, USA).

In series [2] the test system is SKOV3 (human ovarian carcinoma). Nature of the series: CCK-8 cytotoxicity assay, SKOV3. In kind it is cell-based. As to conditions: SK-OV-3, 48 h, read-out: Cytotoxicity IC50 Ovarian SKOV3. The method, then: (§1) The cytotoxicity of the newly synthesized quinolinylphosphonates 7 was evaluated in vitro by testing their antiproliferative activities against several human cancer cell lines: A549 (human lung adenocarcinoma cells), SKOV3 (human ovarian carcinoma), and HEK293 (human embryonic kidney). In order to analyze the selective cytotoxicity facing exclusively cancerous cell lines, cytotoxicity against non-cancerous cell lines (MRC-5, lung fibroblast cells) was also evaluated. Cell counting kit (CCK-8) assay was employed to assess growth inhibition and, cell proliferation inhibitory activities of compounds that are listed in Table 1 as IC50 values. […] According to the data presented in Table 1, in general, all these phosphorated derivatives present higher selective cytotoxicity in the A549 cell line than in the other two cell lines, SKOV3 and HEK293, although slight differences are observed compared to human ovarian carcinoma (SKOV3).
(§2) Cells were cultured according to the supplier’s instructions, A549 (ATCC® CCL-185), SKOV3 (ATCC® HTB-77), HEK293 (CLS GmbH), MRC-5 (ATCC® CCL-171™). Cells were seeded in 96-well plates at a density of 2–2.5 × 10^3 cells per well and incubated overnight in 0.1 mL of media supplied with 10% Fetal Bovine Serum (Lonza, Basel, Switzerland) in a 5% CO2 incubator at 37 °C. On day 2, drugs (concentration between 0.5–50 μM) were added and samples were incubated for 48 h. After treatment, 10 μL of cell counting kit-8 was added to each well for an additional 2 h incubation at 37 °C. The absorbance of each well was determined by an Automatic Elisa Reader System at 450 nm wavelength. CPT was purchased from Sigma-Aldrich and used as a positive control.
A general note: Tetrazolium assays rely on reduction of a dye to a coloured formazan, in cell work by metabolically active cells.

A short description of series [3]: CCK-8 cytotoxicity assay, MRC-5 non-cancerous cells. It counts as cell-based. The following applies: human, MRC-5 non-malignant lung fibroblasts. The method, then:
as §1, §2

`CCOP(=O)(OCC)c1cccc2c(-c3ccccc3)cc(-c3ccccc3)nc12` [7a, Diethyl (2,4-diphenylquinolin-8-yl)phosphonate]: the melting point lay within 118 to 120 °C. Besides, the “LTOP1B Inhibition” value in series [1] came to 58.87%. Moreover, in series [2], the IC50 stood at 9.3 ± 0.76 µM. Moreover, the IC50 at 48 h in series [3] was over 50 µM.
For `CCOP(=O)(OCC)c1cccc2c(-c3ccccc3)cc(-c3ccc(F)cc3)nc12` [7b, Diethyl (4-Phenyl-2-(fluorophenyl)quinolin-8-il) phosphonate] the same measures were 116 to 118 °C, 24.43%, 5.29 ± 1.42 µM and over 50 µM.
For the compound `CCOP(=O)(OCC)c1cccc2c(-c3ccccc3)cc(-c3ccc(OC)cc3)nc12` [7c, Diethyl (2-(4-methoxyphenyl)-4-phenylquinolin-8-yl)phosphonate], the melting point is 120 to 122 °C. For the same compound, the “LTOP1B Inhibition” value in series [1] stood at 45.45%. Further, the IC50 in series [2] is 25 ± 3.6 µM. Further, the half-inhibitory concentration (IC50) at 48 h in series [3] was over 50 µM.
Take `CCOP(=O)(OCC)c1cccc2c(-c3ccccc3)cc(-c3ccccc3OC)nc12` [7d, Diethyl (2-(2-methoxyphenyl)-4-phenylquinolin-8-yl)phosphonate]: the melting point fell in the range of 121 to 123 °C. Moreover, the “LTOP1B Inhibition” value in series [1] came to 46.41%. For the same compound, the IC50 in series [2] is 19.4 ± 1.6 µM. In series [3], this compound yielded a concentration for half-maximal inhibition (IC50) at 48 h of over 50 µM.
In the same order, the values of `CCOP(=O)(OCC)c1cccc2c(-c3ccccc3)cc(-c3ccc4ccccc4c3)nc12` [7e, Diethyl (2-(naphthalen-2-yl)-4-phenylquinolin-8-yl)phosphonate] are 135 to 137 °C, 18.36%, 1.33 ± 0.76 µM and over 50 µM.
On to `CCOP(=O)(OCC)c1cccc2c(-c3ccccc3)cc(-c3cccc4ccccc34)nc12` [7f, Diethyl (2-(naphthalen-1-yl)-4-phenylquinolin-8-yl)phosphonate], for which the melting point was in the range of 140 to 142 °C. In addition, the “LTOP1B Inhibition” value in series [1] is 7.5%. Also, the IC50 in series [2] came out at 4.54 ± 0.52 µM. For the same compound, the IC50 at 48 h in series [3] is over 50 µM.
As to `CCOP(=O)(OCC)c1cccc2c(-c3ccc(F)cc3)cc(-c3ccccc3)nc12` [7g], the melting point is 172 to 174 °C. Besides, the “LTOP1B Inhibition” value in series [1] was determined as 16.49%. Besides, the 50% inhibitory concentration (IC50) in series [2] amounted to 9.29 ± 1.79 µM. The same compound registered an IC50 at 48 h in series [3] of over 50 µM.
The compound `CCOP(=O)(OCC)c1cccc2c(-c3ccc(F)cc3)cc(-c3ccc(F)cc3)nc12` [7h, Diethyl (2,4-bis(4-fluorophenyl)quinolin-8-yl)phosphonate] gave a melting point of 121 to 123 °C. Further, the “LTOP1B Inhibition” value in series [1] is given as 22.44%. In addition, the IC50 in series [2] is 9.79 ± 0.59 µM. Besides, the half-maximal inhibitory concentration (IC50) at 48 h in series [3] was over 50 µM.
As for `CCOP(=O)(OCC)c1cccc2c(-c3ccc(F)cc3)cc(-c3ccc(F)c(F)c3)nc12` [7i, Diethyl (2-(3,4-difluorophenyl)-4-(4-fluorophenyl)quinolin-8-yl)phosphonate], the melting point was in the range of 159 to 161 °C. Moreover, the “LTOP1B Inhibition” value in series [1] was determined as 54.01%. Further, in series [2], the IC50 stood at 37.6 ± 9.1 µM. Moreover, the half-inhibitory concentration (IC50) at 48 h in series [3] was over 50 µM.
In turn, `CCOP(=O)(OCC)c1cccc2c(-c3ccc(C)cc3)cc(-c3ccc(F)cc3)nc12` [7j, Diethyl (2-(4-fluorophenyl)-4-(p-tolyl)quinolin-8-yl)phosphonate] yielded a melting point of 139 to 141 °C. The “LTOP1B Inhibition” value in series [1] amounted to 41.21%. Besides, the IC50 in series [2] turned out to be 10.2 ± 0.38 µM. In addition, in series [3], the IC50 at 48 h is over 50 µM.
Take `CCOP(=O)(OCC)c1cccc2c(-c3ccc(C)cc3)cc(-c3ccc(F)c(F)c3)nc12` [7k, Diethyl (2-(3,4-difluorophenyl)-4-(p-tolyl)quinolin-8-yl)phosphonate]: the melting point fell in the range of 133 to 135 °C. Also, the “LTOP1B Inhibition” value in series [1] is 77.02%. Besides, in series [2], the IC50 was 10.6 ± 1.13 µM. Also, the IC50 at 48 h in series [3] is over 50 µM.
Consider `CC(C)OP(=O)(OC(C)C)c1cccc2c(-c3ccccc3)cc(-c3ccc(F)cc3)nc12` [7l, Diisopropyl (2-(4-fluorophenyl)-4-phenylquinolin-8-yl)phosphonate], for which the melting point was in the range of 107 to 109 °C. Moreover, the “LTOP1B Inhibition” value in series [1] was determined as 3.55%. Besides, the 50% inhibitory concentration (IC50) in series [2] came to 18.7 ± 1.98 µM. In series [3], this compound displayed an IC50 at 48 h of over 50 µM.
Regarding `CC(C)OP(=O)(OC(C)C)c1cccc2c(-c3ccccc3)cc(-c3ccc(F)c(F)c3)nc12` [7m, Diisopropyl (2-(3,4-difluorophenyl)-4-phenylquinolin-8-yl)phosphonate], the melting point was 127 to 129 °C. Moreover, in series [1], the “LTOP1B Inhibition” value turned out to be 5.41%. The half-inhibitory concentration (IC50) in series [2] was found to be 12.1 ± 1.7 µM. In series [3], this compound came in with a concentration for half-maximal inhibition (IC50) at 48 h of over 50 µM.
Compound `CC(C)OP(=O)(OC(C)C)c1cccc2c(-c3ccc(F)cc3)cc(-c3ccc(F)cc3)nc12` [7n, Diisopropyl (2,4-bis(4-fluorophenyl)quinolin-8-yl)phosphonate] displayed a melting point of 113 to 115 °C. The “LTOP1B Inhibition” value in series [1] is reported as 43.31%. Further, the half-maximal inhibitory concentration (IC50) in series [2] amounted to 19.8 ± 3.83 µM. Further, the IC50 at 48 h in series [3] was over 50 µM.
`CC(C)OP(=O)(OC(C)C)c1cccc2c(-c3ccc(F)cc3)cc(-c3ccc(F)c(F)c3)nc12` [7o, Diisopropyl (2-(3,4-difluorophenyl)-4-(4-fluorophenyl)quinolin-8-yl)phosphonate] registered a melting point of 144 to 146 °C. For the same compound, the “LTOP1B Inhibition” value in series [1] was found to be 73.27%. In addition, in series [2], the IC50 was 22.1 ± 4.47 µM. For the same compound, in series [3], the IC50 at 48 h is over 50 µM.
As for `Cc1ccc(-c2cc(-c3ccc(F)cc3)nc3c(P(=O)(OC(C)C)OC(C)C)cccc23)cc1` [7p, Diisopropyl (2-(4-fluorophenyl)-4-(p-tolyl)quinolin-8-yl)phosphonate], the melting point was in the range of 121 to 123 °C. Also, the “LTOP1B Inhibition” value in series [1] amounted to 41.62%. Further, the IC50 in series [2] amounted to 12.1 ± 1.68 µM. Besides, the IC50 at 48 h in series [3] is over 50 µM.
Compound `Cc1ccc(-c2cc(-c3ccc(F)c(F)c3)nc3c(P(=O)(OC(C)C)OC(C)C)cccc23)cc1` [7q, Diisopropyl (2-(3,4-difluorophenyl)-4-(p-tolyl)quinolin-8-yl)phosphonate] displayed a melting point of 140 to 142 °C. Also, the “LTOP1B Inhibition” value in series [1] stood at 52.65%. Besides, in series [2], the IC50 was found to be 4.67 ± 1.5 µM. In series [3], this compound registered an IC50 at 48 h of over 50 µM.
`CCOP(=O)(OCC)c1ccc2nc(-c3ccc(F)cc3)cc(-c3ccccc3)c2c1` [7r, Diethyl (2-(4-fluorophenyl)-4-phenylquinolin-6-yl)phosphonate] registered a melting point of 137 to 139 °C. For the same compound, the “LTOP1B Inhibition” value in series [1] came out at 1.94%. In addition, in series [2], the 50% inhibitory concentration (IC50) turned out to be 3.03 ± 1.24 µM. Also, the concentration for half-maximal inhibition (IC50) at 48 h in series [3] is over 50 µM.
Turning to `CCOP(=O)(OCC)c1ccc2nc(-c3ccc(F)c(F)c3)cc(-c3ccccc3)c2c1` [7s, Diethyl (2-(3,4-difluorophenyl)-4-phenylquinolin-6-yl)phosphonate], the melting point was 134 to 136 °C. Also, in series [1], the “LTOP1B Inhibition” value was found to be 14.56%. Also, the half-maximal inhibitory concentration (IC50) in series [2] was over 50 µM. This compound also returned an IC50 at 48 h in series [3] of over 50 µM.
